This data set has as its system GENE-TOX genotoxicity assays, various organisms and cells. The data set can be described thus: GENE-TOX mutagenicity studies. To be noted: for call: Assay Type: In vivo carcinogenicity studies.
Setting [1] is: Species/Cell Type: Escherichia coli WP2, Assay Type: Tryptophan reverse gene mutation, Assay Code: WP2+, Evaluation Type: Evaluation A (Pre-1980).
[2] abbreviates: Species/Cell Type: Nonhuman, Assay Type: Sister-chromatid exchange (SCE) in vitro, Assay Code: SC2+D, Dose Response: With dose response, Evaluation Type: Evaluation B (Post-1980).
[3] abbreviates: Species/Cell Type: Nonhuman, Assay Type: Sister-chromatid exchange (SCE) in vivo, Assay Code: SC3+, Evaluation Type: Evaluation B (Post-1980).
The mark [4] stands for this setting: Species/Cell Type: Rodents, Sex: Male, Assay Type: Dominant lethal test, Assay Code: DLT-, Evaluation Type: Evaluation A (Pre-1980).
The mark [5] stands for this setting: Species/Cell Type: Salmonella typhimurium (one or more of the five standard strains: TA98, TA100, TA1535, TA1537, and TA1538), Assay Type: Histidine reverse gene mutation, Ames assay, Assay Code: SAL+, Evaluation Type: Evaluation A (Pre-1980).
Setting [6] is: Species/Cell Type: Salmonella typhimurium, Assay Type: Forward and reverse gene mutation, host-mediated assay, Assay Code: HMA-, Evaluation Type: Evaluation A (Pre-1980).
[7] abbreviates: Species/Cell Type: Bacillus subtilis (H17 vs M45), Assay Type: Rec-assay, spot test, DNA effects (bacterial DNA repair), Assay Code: REW+, Evaluation Type: Evaluation A (Pre-1980).
The mark [8] stands for this setting: Species/Cell Type: Chinese hamster lung (V79) cells, Assay Type: Forward gene mutation at the HPRT or ouabain locus, Assay Code: V79+, Evaluation Type: Evaluation A (Pre-1980).
Setting [9] is: Species/Cell Type: Nonhuman, Assay Code: CCG+, Evaluation Type: Evaluation A (Pre-1980).
The mark [10] stands for this setting: Species/Cell Type: Salmonella typhimurium, Assay Type: Forward and reverse gene mutation, host-mediated assay, Assay Code: HMA+, Evaluation Type: Evaluation A (Pre-1980).
[11] abbreviates: Species/Cell Type: Nonhuman, Assay Code: CCG+L, Evaluation Type: Evaluation A (Pre-1980).
Where [12] appears, read: Species/Cell Type: Salmonella typhimurium (one or more of the five standard strains: TA98, TA100, TA1535, TA1537, and TA1538), Assay Type: Histidine reverse gene mutation, Ames assay, Assay Code: SAL-, Evaluation Type: Evaluation A (Pre-1980).
Setting [13] is: Species/Cell Type: Saccharomyces cerevisiae, Assay Type: Mitotic recombination or gene conversion, Assay Code: YEH-, Evaluation Type: Evaluation A (Pre-1980).
Setting [14] is: Species/Cell Type: Escherichia coli WP2 UVRA, Assay Type: Tryptophan reverse gene mutation, Assay Code: WPU-, Evaluation Type: Evaluation A (Pre-1980).

Activity calls are given as the source filed them. The rule behind the calls is not given here.

On to `O=C1CN(/N=C/c2ccc([N+](=O)[O-])o2)C(=O)N1`, for which the mutagenic call reads like this: under setting [1], “active; positive”; (Species/Cell Type: Escherichia coli WP2 UVRA, Assay Type: Tryptophan reverse gene mutation, Assay Code: WPU+D, Dose Response: With dose response, Evaluation Type: Evaluation A (Pre-1980)) “active; positive”; (Species/Cell Type: Human diploid fibroblasts, Assay Type: Unscheduled DNA synthesis (UDS) in vitro, DNA effects, Assay Code: UDH-, Evaluation Type: Evaluation A (Pre-1980)) “inactive; negative”; (Species/Cell Type: Human, Assay Type: Sister-chromatid exchange (SCE) in vitro, Assay Code: SC1T, Evaluation Type: Evaluation B (Post-1980)) “no conclusion”; (Species/Cell Type: Human, Sex: Male, Assay Type: Sperm morphology, Assay Code: SPHT, Evaluation Type: Evaluation A (Pre-1980)) “no conclusion”; (Species/Cell Type: Mammalian polychromatic erythrocytes, Assay Type: Micronucleus test, chromosome aberrations, Assay Code: MNT+, Evaluation Type: Evaluation A (Pre-1980)) “active; positive”. For the same compound, the mutagenic call by setting is: (Species/Cell Type: Mouse, Sex: Male, Assay Type: Sperm morphology, Assay Code: SPI-, Evaluation Type: Evaluation A (Pre-1980)) “inactive; negative”; under setting [2], “active; positive”; under setting [3], “active; positive”; under setting [4], “inactive; negative”; (Species/Cell Type: Saccharomyces cerevisiae, Assay Type: Forward and reverse gene mutation, mitotic recombination and gene conversion, host-mediated assay, Assay Code: HME+, Evaluation Type: Evaluation A (Pre-1980)) “active; positive”; (Species/Cell Type: Saccharomyces cerevisiae, Assay Type: Mitotic recombination or gene conversion, Assay Code: YEC+*, Activation: With metabolic activation, Evaluation Type: Evaluation A (Pre-1980)) “active; positive”. Further, the mutagenic call under setting [5] is “active; positive”; the mutagenic call (Species/Cell Type: Salmonella typhimurium and Saccharomyces cerevisiae, Assay Type: Forward and reverse gene mutation, mitotic recombination and gene conversion, DNA effects, body fluid assay, Assay Code: BFG+, Evaluation Type: Evaluation A (Pre-1980)) is “active; positive”. Moreover, the call (Species/Cell Type: Nonhuman, Assay Code: CCGT, Evaluation Type: Evaluation A (Pre-1980)) is “no conclusion”.
As to `O=C(O)C1CCCCN1` (stereo unspecified), the mutagenic call under setting [6] is “inactive; negative”.
With `[O]=[V](=[O])[OH]`, the mutagenic call under setting [7] was “active; positive”.
As to `CN(N=O)C(=O)N[C@@H](C=O)[C@@H](O)[C@H](O)[C@H](O)CO`, the mutagenic call reads like this: (Species/Cell Type: Arabidopsis species, Assay Type: Gene mutation, Assay Code: ARM+D, Dose Response: With dose response, Evaluation Type: Evaluation A (Pre-1980)) “active; positive”; under setting [8], “active; positive”; (Species/Cell Type: Escherichia coli polA (W3119 vs P3478), Assay Type: Rec-assay, DNA effects (bacterial DNA repair), Assay Code: RE1+, Evaluation Type: Evaluation A (Pre-1980)) “active; positive”; under setting [3], “active; positive”; under setting [5], “active; positive”; (Species/Cell Type: Salmonella typhimurium, Assay Type: Forward and reverse gene mutation, body fluid assay, Assay Code: BFU+, Evaluation Type: Evaluation A (Pre-1980)) “active; positive”. Under setting [10], the mutagenic call is “active; positive”. Besides, under setting [9], the call was “active; positive”.
In the case of `CCC(CC)c1cccc(OC(=O)N(C)N=O)c1`, the mutagenic call under setting [5] is “active; positive”.
Consider `C=COC(C)=O`, for which the mutagenic call was “active; positive” (Species/Cell Type: Human lymphocytes, Assay Type: Sister-chromatid exchange (SCE) in vitro, Assay Code: SCL+D, Dose Response: With dose response, Evaluation Type: Evaluation B (Post-1980)); “active; positive” (Species/Cell Type: Human, Assay Type: Sister-chromatid exchange (SCE) in vitro, Assay Code: SC1+D, Dose Response: With dose response, Evaluation Type: Evaluation B (Post-1980)); “active; positive” (Species/Cell Type: Mammalian polychromatic erythrocytes, Assay Type: Micronucleus test, chromosome aberrations, Assay Code: MNT+, Evaluation Type: Evaluation B (Post-1980)); “active; positive” under setting [2]; “inactive; negative” under setting [12]; “active; positive” (Species/Cell Type: Syrian hamster embryo (SA7/SHE) cells, Assay Type: Cell transformation, viral enhanced, Assay Code: CT7+, Evaluation Type: Evaluation A (Pre-1980)). For the same compound, the call under setting [11] was “active; positive”.
`ClC1=C(Cl)[C@]2(Cl)[C@@H]3[C@@H]4C[C@@H]([C@H]5O[C@@H]45)[C@@H]3[C@@]1(Cl)C2(Cl)Cl`: the mutagenic call is “active; positive” under setting [8]; “no conclusion” (Species/Cell Type: Drosophila melanogaster, Assay Type: Sex-linked recessive lethal gene mutation, Assay Code: SRLT, Evaluation Type: Evaluation A (Pre-1980)); “inactive; negative” under setting [4]; “inactive; negative” (Species/Cell Type: Saccharomyces cerevisiae, Assay Type: Forward and reverse gene mutation, mitotic recombination and gene conversion, host-mediated assay, Assay Code: HME-, Evaluation Type: Evaluation A (Pre-1980)); “inactive; negative” under setting [13]; “inactive; negative” under setting [12].
In the case of `O=C(NOS(=O)(=O)O)c1ccc2ccccc2c1`, the mutagenic call under setting [2] is “active; positive”.
As for `Cc1ccc2nc3c(ccc4ccccc43)c(C)c2c1`, the mutagenic call (Species/Cell Type: Escherichia coli polA (W3110 vs P3478), Assay Type: Rec-assay, DNA effects (bacterial DNA repair), Assay Code: RE2T, Evaluation Type: Evaluation A (Pre-1980)) is reported as “no conclusion”; the mutagenic call (Species/Cell Type: Escherichia coli polA (W3119 vs P3478), Assay Type: Rec-assay, DNA effects (bacterial DNA repair), Assay Code: RE1T, Evaluation Type: Evaluation A (Pre-1980)) was “no conclusion”; the mutagenic call (Species/Cell Type: Fischer rat embryo (RLV/1706) cells, Assay Type: Cell transformation, viral enhanced, Assay Code: CTR+, Evaluation Type: Evaluation A (Pre-1980)) was “active; positive”; the mutagenic call (Species/Cell Type: Mouse (BALB/c-3T3) cells, Assay Type: Cell transformation, Assay Code: CTB-, Evaluation Type: Evaluation A (Pre-1980)) was “inactive; negative”; the mutagenic call under setting [13] is “inactive; negative”; the mutagenic call (Species/Cell Type: Salmonella typhimurium (one or more of the five standard strains: TA98, TA100, TA1535, TA1537, and TA1538), Assay Type: Histidine reverse gene mutation, Ames assay, Assay Code: SAL+*, Activation: With metabolic activation, Evaluation Type: Evaluation A (Pre-1980)) was “active; positive”. Further, the mutagenic call under setting [6] was “inactive; negative” and the mutagenic call (Species/Cell Type: Syrian hamster embryo (SHE) cells, Assay Type: Cell transformation, clonal assay, Assay Code: CTC+, Evaluation Type: Evaluation A (Pre-1980)) was “active; positive”. Also, the call under setting [11] was “active; positive”.
`C1COCCN1`: the mutagenic call under setting [10] was “active; positive”.
Take `CNC(=O)Nc1nc2ccccc2s1`: the mutagenic call (Species/Cell Type: Saccharomyces cerevisiae, Assay Type: Mitotic recombination or gene conversion, Assay Code: YEC-, Evaluation Type: Evaluation A (Pre-1980)) was “inactive; negative”.
On to `CS(=O)(=O)OCCNP1(=O)OCCCN1CCCl` (stereo unspecified), for which the mutagenic call (Species/Cell Type: Mammalian polychromatic erythrocytes, Assay Type: Micronucleus test, chromosome aberrations, Assay Code: MNT+U, Dose Response: Unconfirmed positive response, Evaluation Type: Evaluation A (Pre-1980)) was “active; positive”.
For `C=CCCCCCC=CCC#CC#CC=CC`, the mutagenic call (Species/Cell Type: Nonhuman, Assay Type: Sister-chromatid exchange (SCE) in vitro, Assay Code: SC2T, Evaluation Type: Evaluation B (Post-1980)) is listed as “no conclusion”.
Turning to `CS(=O)(=O)OCCNC(=O)N(CCCl)N=O`, the mutagenic call reads like this: (Species/Cell Type: Drosophila melanogaster, Assay Type: Sex-linked recessive lethal gene mutation, Assay Code: SRL+, Evaluation Type: Evaluation A (Pre-1980)) “active; positive”; (Species/Cell Type: Saccharomyces cerevisiae, Assay Type: Mitotic recombination or gene conversion, Assay Code: YEC+, Evaluation Type: Evaluation A (Pre-1980)) “active; positive”.
`Cc1ccc2c(c1[N+](=O)[O-])C(=O)c1cccc([N+](=O)[O-])c1C2=O`: the mutagenic call under setting [5] is “active; positive”.
In the case of `COc1cccc(C2CO2)c1` (stereo unspecified), the mutagenic call under setting [14] was “inactive; negative”.
On to `ClCc1ccccn1`, for which, for the setting “Species/Cell Type: Nonhuman, Assay Code: CCG-L, Evaluation Type: Evaluation A (Pre-1980)”, the call is “inactive; negative”.
`CC1CC2OC(=O)C(C)C2CC2(C)C(O)OC(O)CC12` (stereo unspecified): the mutagenic call under setting [5] is “active; positive”.
For the compound `CCN(CC)CCCNC(=O)N/N=C/c1ccc([N+](=O)[O-])o1`, for the setting “Species/Cell Type: Escherichia coli WP2 UVRA, Assay Type: Tryptophan reverse gene mutation, Assay Code: WPU+, Evaluation Type: Evaluation A (Pre-1980)”, the mutagenic call is “active; positive”.
In the case of `CC(=O)Nc1nc(-c2ccc([N+](=O)[O-])o2)cs1`, the mutagenic call was “active; positive” under setting [7]; “active; positive” under setting [1]; “inactive; negative” under setting [14]; “active; positive” under setting [2]; “active; positive” under setting [5]. Moreover, the call under setting [9] is “active; positive”.

The values above are taken from PubChem BioAssay AID1259408 (Genetic Toxicology Data Bank (GENE-TOX), 2018).
